These results are taken from patent US7601850B2, “Phenyl-thiophene type vitamin D receptor modulators” (Eli Lilly and Company, priority 2002, dated 2009).

Like-named read-outs stand apart in the source and are kept apart here.

The target of data set [1] is T1, RXR-VDR heterodimer (Homo sapiens, UniProt P11473).
T1 construct: Add the Gal-4-RXR-DEF and VP16-VDR-LBD; expressed in transfected cells; host or cells: SaOS-2 cells
T1 sequence (P11473 127-423 limits assumed): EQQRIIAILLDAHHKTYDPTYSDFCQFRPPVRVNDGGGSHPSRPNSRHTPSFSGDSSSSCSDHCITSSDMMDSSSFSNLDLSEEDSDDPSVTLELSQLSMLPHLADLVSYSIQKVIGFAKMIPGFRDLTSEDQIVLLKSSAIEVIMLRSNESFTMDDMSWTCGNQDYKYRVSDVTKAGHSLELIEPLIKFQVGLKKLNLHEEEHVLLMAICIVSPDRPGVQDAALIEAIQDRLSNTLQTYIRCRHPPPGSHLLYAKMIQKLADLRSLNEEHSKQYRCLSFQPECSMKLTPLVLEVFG
T1 sequence (P19793 201-462 partner limits assumed): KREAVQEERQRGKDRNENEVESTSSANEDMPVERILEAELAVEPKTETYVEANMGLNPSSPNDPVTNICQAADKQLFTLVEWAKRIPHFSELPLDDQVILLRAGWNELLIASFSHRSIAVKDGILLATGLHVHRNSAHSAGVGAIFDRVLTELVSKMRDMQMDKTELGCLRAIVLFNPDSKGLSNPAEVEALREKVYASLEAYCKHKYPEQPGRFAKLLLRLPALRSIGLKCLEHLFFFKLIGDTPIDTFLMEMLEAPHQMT
Put plainly: RXR-VDR heterodimerization assay (SaOS-2 cells). Format: cell-based. From the text:
2. The RXR-VDR heterodimerization (SaOS-2 cells) test is described in the “Assay” section of the Description, infra.
1. The RXR-VDR heterodimerAssay:
This assay provides the VDR activity of a test compound.
(1) Materials and Method for RXR-VDR Heterodimerization Assay:
Luciferase Assay Reagent: • Use Steady-Glo Luciferase Reagent from Promega (Cat # E2550) Consists of: • a. E2533 Assay Substrate, lyopholized product and • b. […] DAY 2: Transfection Step 1: DNA and Media • Add plain DMEM media to tubes for mixing the DNA • Add the Reporter gene pFR-LUC • Add the Gal-4-RXR-DEF and VP16-VDR-LBD Step 2: FuGENE and Media • Prepare plain DMEM media in a ubes for mixing FuGENE • Add FuGENE 6 Transfection Reagent • Incubate Step 3: FuGENE, DNA and Media Complex • Add FuGENE Media complex from step 2 to DNA Media complex from step 1 • Incubate Step 4: FuGENE, DNA and Media Complex to-well plate • Add FuGENE-DNA-Media complex from step 3 to each plate • Incubate. […] Day 4: Luciferase Assay • Read the plates after drug treatment • Remove part of media from all the wells and leave remainder • Add Steady-Glo Luciferase Reagent mixture/wells • Incubate • Count each well using a Luminescence counter, Top Count NXT by Packard
Set a delay between plates to reduce the background.

In data set [2] the target is T2, VDR (Homo sapiens, UniProt P11473).
T2 construct: the receptor expression vector pGa14-VDR-LBD (10 ng); expressed in transfected cells; host or cells: Caco-2 cells
T2 sequence (P11473 127-423 limits assumed): T1 sequence (P11473 127-423 limits assumed)
Kind of data set: VDR CTF (Caco-2 cell co-transfection assay). The format is cell-based. The conditions noted are these: Caco-2 cells. As for the experimental part: 3. The VDR CTF (Caco-2 cells) test is described in the “Assay” section of the Description, infra.
2. The Caco-2 Cell Co-Transfection Assay:
The Caco-2 cell assay is an indicator for the undesirable condition of hypercalcemia. This co-transfection assay is a surrogate assay for in vivo calcemic activity of VDR ligands. […] Preferred assay results are greater than 1000 nM.
(2) Materials and Method for The Caco-2 Cell Assay:
Caco-2 cells, grown in phenol red free, DMEM (Invitrogen, Carlsbad, Calif.) containing 10% charcoal-stripped FCS (Hyclone, Logan, Utah), were transfected with Fugene 6 reagent (Roche Diagnostics, Indianapolis, Ind.). Cells (5000/well) were plated 18 h before transfection in a 96 well plate. The Cells were transfected with Gal-4-responsive reporter pFRLuc (150 ng, Stratagene, La Jolla Calif.) and the receptor expression vector pGa14-VDR-LBD (10 ng), along with Fugene 6 reagent (0.2 µl/well). The DNA-Fugene complex was formed by incubating the mixture for 30 min at room temperature. The cells were transfected in triplicate for 5 h, and treated with various concentrations of VDR ligands (form 0.01 nM to 10,000 nM concentration range) 18 h post-transfection. The luciferase activity was quantified using Steady-Glo reagent kit (Promega, Madison, Wis.) as per manufacturer's specifications.

The subject of data set [3] is rat osteocalcin promoter. Put plainly: OCN (osteocalcin) promoter assay in RG-15 (ROS 17/2.8) cells. Format: cell-based. In outline: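 Rat osteoblast-like RG-15 (ROS 17/2.8) cells stably carry the rat osteocalcin promoter fused to luciferase. They were treated with compounds for 48 h in medium with 2% FBS and 0.01% DMSO. EC50 was derived from luciferase activity in cell lysates.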

Data set [4] in a line: Mouse hypercalcemia assay (six day, serum ionized calcium). The format is in vivo.

With `CCC(CC)(c1ccc(OCC(O)C(C)(C)C)c(C)c1)c1cc(C)c(C(=O)OC)s1` (single isomer, unassigned) [Ex. 6B], the EC50 in data set [1] came to 0.323 µM; in data set [2] it was 1.06 µM; in data set [3] (Rattus norvegicus), 0.326 µM.
Regarding `CCC(CC)(c1ccc(OCS(C)(=O)=O)c(C)c1)c1cc(C)c(CCC(O)C(C)(C)C)s1` (single isomer, unassigned) [Ex. 15B], the EC50 in data set [1] worked out at 0.212 µM; in data set [2] it was 0.245 µM.
With `CCCc1cc(C(CC)(CC)c2ccc(C(=O)O)s2)ccc1OCC(O)C(C)(C)C` (single isomer, unassigned) [Ex. 95, 3′-[4-(2-hydroxy-3,3-dimethylbutoxy)-3-n-propylphenyl]-3′-[5-carboxy-thiophen-2-yl]pentane], the EC50 worked out at 0.421 µM in data set [1], 1.18 µM in data set [2] and 0.0215 µM in data set [3]. Also, the “Mouse Hypercal” value in data set [4] was above 6000 µg/kg/day.
For the compound `CCC(CC)(c1ccc(OCC(O)C(C)(C)C)c(C)c1)c1ccc(C(=O)OC)s1` (stereo not shown) [Ex. 5], the EC50 in data set [2] turned out to be 1.03 µM; in data set [3] (Rattus norvegicus), 0.146 µM.
In the case of `CCC(CC)(c1ccc(OCC(O)C(C)(C)C)c(C)c1)c1cc(C)c(S(=O)(=O)NCC(=O)OC)s1` (stereo not shown) [Ex. 136], the 50% effective concentration (EC50) is 0.431 µM in data set [1] and 0.901 µM in data set [2].
